Assay results taken from ChEMBL document CHEMBL1131247, “Substituted naphthofurans as hallucinogenic phenethylamine-ergoline hybrid molecules with unexpected muscarinic antagonist activity” (J Med Chem, 1998).

Key:
[1] = target: T1, 5-hydroxytryptamine receptor 1A (Rattus norvegicus, UniProt P19327); assay: Affinity at [3H]8-OH-DPAT-labeled 5-hydroxytryptamine 1A receptor in rat brain homogenate was determined; assay type: tissue-based
T1 sequence (P19327 whole entry): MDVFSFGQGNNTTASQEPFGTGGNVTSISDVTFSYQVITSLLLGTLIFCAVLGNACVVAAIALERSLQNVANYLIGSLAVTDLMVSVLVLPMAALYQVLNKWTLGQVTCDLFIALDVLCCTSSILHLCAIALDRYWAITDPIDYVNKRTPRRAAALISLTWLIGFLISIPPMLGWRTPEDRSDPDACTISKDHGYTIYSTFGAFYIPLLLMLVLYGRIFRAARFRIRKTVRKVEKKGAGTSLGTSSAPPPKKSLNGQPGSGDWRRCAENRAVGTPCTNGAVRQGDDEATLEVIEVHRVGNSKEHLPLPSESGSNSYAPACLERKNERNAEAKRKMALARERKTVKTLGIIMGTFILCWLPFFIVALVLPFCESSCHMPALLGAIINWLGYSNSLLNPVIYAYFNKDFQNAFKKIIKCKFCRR

[2] = target: 5-hydroxytryptamine receptor 2A (Rattus norvegicus, UniProt P14842); assay: Affinity at [3H]ketanserin-labeled 5-hydroxytryptamine 2A receptor in rat brain homogenate was determined; assay type: tissue-based
5-hydroxytryptamine receptor 2A, sequence (P14842 whole entry): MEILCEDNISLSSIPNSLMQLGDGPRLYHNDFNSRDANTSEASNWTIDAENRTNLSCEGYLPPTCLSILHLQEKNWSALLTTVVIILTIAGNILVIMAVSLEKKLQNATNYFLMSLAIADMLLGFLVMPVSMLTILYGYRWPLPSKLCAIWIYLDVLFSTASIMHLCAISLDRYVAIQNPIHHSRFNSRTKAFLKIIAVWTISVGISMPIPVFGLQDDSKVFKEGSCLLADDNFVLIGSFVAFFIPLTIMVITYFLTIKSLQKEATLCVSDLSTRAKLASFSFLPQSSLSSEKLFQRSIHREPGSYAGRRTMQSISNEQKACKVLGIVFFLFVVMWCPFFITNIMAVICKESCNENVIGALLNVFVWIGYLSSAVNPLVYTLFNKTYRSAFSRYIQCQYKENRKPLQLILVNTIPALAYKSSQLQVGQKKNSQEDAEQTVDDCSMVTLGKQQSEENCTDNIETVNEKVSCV

[3] = target: T2, Muscarinic acetylcholine receptor M1 (Mus musculus) (UniProt P12657)
T2 sequence (whole entry): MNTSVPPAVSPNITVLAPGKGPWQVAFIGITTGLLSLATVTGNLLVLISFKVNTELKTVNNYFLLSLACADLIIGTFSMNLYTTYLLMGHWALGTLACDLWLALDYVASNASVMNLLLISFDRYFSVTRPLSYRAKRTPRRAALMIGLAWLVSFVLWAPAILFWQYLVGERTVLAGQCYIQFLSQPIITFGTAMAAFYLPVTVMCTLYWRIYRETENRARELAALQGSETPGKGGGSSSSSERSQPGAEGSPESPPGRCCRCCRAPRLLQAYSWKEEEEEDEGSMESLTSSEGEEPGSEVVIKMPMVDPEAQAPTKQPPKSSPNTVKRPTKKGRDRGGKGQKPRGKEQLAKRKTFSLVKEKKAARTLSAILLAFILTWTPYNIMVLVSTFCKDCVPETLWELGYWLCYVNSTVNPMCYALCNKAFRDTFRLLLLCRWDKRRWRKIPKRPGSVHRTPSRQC
Description: Compound was evaluated for the affinity at the cloned radio labelled Muscarinic acetylcholine receptor M1

[4] = target: Muscarinic acetylcholine receptor M3 (Rattus norvegicus) (UniProt P08483)
Muscarinic acetylcholine receptor M3 (Rattus norvegicus), sequence (P08483 whole entry, looked up): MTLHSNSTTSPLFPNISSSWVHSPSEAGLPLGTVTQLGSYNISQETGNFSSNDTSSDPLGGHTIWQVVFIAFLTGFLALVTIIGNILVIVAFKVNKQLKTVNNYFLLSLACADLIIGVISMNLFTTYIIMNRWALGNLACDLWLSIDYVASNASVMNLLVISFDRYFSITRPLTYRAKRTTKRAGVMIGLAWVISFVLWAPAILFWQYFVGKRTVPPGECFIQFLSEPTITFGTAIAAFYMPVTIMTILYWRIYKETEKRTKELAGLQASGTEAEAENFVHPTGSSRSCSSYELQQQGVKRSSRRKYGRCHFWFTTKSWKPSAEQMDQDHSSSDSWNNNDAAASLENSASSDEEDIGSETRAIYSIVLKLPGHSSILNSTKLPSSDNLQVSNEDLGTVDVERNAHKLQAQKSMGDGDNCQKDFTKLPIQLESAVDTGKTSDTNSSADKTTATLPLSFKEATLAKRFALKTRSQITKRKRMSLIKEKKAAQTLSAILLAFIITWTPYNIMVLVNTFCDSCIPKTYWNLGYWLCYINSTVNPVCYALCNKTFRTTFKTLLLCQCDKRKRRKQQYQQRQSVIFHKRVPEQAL
Description: Compound was evaluated for the affinity at the cloned radio labelled Muscarinic acetylcholine receptor M3

[5] = target: T3, Muscarinic acetylcholine receptor M4 (Rattus norvegicus) (UniProt P08485)
T3 sequence (whole entry): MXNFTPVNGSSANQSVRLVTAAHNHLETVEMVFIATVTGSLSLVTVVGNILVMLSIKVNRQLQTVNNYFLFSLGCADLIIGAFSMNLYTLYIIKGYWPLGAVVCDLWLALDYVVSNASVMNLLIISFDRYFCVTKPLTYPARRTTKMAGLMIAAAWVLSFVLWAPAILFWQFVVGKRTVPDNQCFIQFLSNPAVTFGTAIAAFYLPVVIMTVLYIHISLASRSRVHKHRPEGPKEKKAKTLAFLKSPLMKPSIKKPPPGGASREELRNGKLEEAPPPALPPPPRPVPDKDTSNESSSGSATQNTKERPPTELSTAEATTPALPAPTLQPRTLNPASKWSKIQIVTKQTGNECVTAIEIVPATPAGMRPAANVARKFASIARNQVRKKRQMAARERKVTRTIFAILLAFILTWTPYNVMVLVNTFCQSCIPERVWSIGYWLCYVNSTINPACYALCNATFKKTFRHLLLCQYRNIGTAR
Description: Compound was evaluated for the affinity at the cloned radio labelled Muscarinic acetylcholine receptor M4

[6] = target: T4, Muscarinic acetylcholine receptor M5 (Rattus norvegicus) (UniProt P08911)
T4 sequence (whole entry): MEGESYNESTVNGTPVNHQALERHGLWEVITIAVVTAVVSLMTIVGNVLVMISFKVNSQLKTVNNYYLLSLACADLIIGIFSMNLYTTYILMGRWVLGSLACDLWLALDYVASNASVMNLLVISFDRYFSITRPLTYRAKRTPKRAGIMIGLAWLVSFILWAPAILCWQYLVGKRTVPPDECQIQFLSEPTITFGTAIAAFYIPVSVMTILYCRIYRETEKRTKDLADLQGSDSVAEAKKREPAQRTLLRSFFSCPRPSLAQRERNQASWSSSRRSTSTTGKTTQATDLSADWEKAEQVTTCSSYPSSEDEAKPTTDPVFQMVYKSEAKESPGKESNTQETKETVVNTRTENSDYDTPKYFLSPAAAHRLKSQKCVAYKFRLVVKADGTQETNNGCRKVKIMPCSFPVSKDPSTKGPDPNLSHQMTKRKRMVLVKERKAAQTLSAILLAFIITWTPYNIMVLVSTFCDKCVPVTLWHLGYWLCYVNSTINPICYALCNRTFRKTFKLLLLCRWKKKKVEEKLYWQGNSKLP
Description: Compound was evaluated for the affinity at the cloned radio labelled Muscarinic acetylcholine receptor M5

[7] = target: T5, Muscarinic acetylcholine receptor M2 (Rattus norvegicus) (UniProt P10980)
T5 sequence (whole entry): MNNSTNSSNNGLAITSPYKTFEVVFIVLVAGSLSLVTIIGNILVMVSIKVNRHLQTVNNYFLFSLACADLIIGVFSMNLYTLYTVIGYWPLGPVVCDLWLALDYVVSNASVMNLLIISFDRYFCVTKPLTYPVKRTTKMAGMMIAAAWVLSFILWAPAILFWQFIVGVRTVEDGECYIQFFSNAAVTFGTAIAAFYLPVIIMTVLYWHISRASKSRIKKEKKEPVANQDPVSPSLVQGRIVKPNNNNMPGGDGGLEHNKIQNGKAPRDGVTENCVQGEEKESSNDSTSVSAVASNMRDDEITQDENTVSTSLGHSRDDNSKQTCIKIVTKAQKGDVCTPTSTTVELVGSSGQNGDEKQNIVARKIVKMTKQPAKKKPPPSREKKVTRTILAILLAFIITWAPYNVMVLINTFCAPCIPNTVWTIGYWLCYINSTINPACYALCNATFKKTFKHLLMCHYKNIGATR
Description: Compound was evaluated for the affinity at the cloned radio labelled Muscarinic acetylcholine receptor M2

[8] = organism: Rattus norvegicus; assay: Effective dose for LSD-like behavioral effect in rats; assay type: functional

Compound	Ki [1] [µM]	Ki [2] [µM]	K 0.5 [3] [nM]	K 0.5 [4] [nM]	K 0.5 [5] [nM]	K 0.5 [6] [nM]	K 0.5 [7] [µM]	ED50 [8] [mg/kg]
CCCN(CCC)[C@H]1Cc2c(OC)ccc3c2[C@@H](CO3)C1	144	0.644	–	–	–	–	–	–
COc1ccc2c3c1C[C@H](N)C[C@@H]3CO2	–	–	149	129	240	236	33.4	–
COc1ccc2c3c1C[C@H](N(C)C)C[C@@H]3CO2	38	0.967	846	654	913	1100	0.953	–
COc1cc(C[C@@H](C)N)c(OC)cc1Br	6.1	–	–	–	–	–	–	1.12
